We go through 31 compounds from ChEMBL document CHEMBL1127230, “New non-peptide angiotensin II receptor antagonists. 2: structure - activity relationship of a series of annelated 2(1H)-pyridinones” (Bioorg Med Chem Lett, 1994).

In test [1] the target is T1, Type-1 angiotensin II receptor (Bos taurus, UniProt P25104).
T1 sequence (P25104 whole entry): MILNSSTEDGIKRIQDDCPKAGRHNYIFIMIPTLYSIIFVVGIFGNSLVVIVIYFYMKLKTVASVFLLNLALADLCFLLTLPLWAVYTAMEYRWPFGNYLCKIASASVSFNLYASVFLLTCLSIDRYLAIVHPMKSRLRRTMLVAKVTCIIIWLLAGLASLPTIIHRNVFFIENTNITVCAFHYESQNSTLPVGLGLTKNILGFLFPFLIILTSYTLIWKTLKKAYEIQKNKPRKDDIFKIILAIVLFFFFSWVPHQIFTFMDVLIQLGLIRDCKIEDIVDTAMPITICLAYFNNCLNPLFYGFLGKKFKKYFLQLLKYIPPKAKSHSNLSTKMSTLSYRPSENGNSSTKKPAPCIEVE
Kind of test: Inhibition of [125I]AII binding to angiotensin II receptor of bovine adrenal cortex. It counts as tissue-based. As to conditions: read-out: EC50 (the source's name).

Test [2] deals with Angiotensin II receptor (Homo sapiens) (UniProt P30556+P50052). Kind of test: In vitro functional antagonistic affinity measured against angiotensin II receptor in paired rings of rabbit aorta. It counts as tissue-based. The conditions noted are these: Oryctolagus cuniculus, target entry is the homologue from another species.
Test [3] has as its system Rattus norvegicus. Kind of test: In vivo potency determined as dose given iv to produce reduction in angiotensin II pressor response in normotensive rats. It counts as functional. The conditions noted are these: read-out: ID50 (the source's name).
Test [4] relates to Rattus norvegicus. Kind of test: Tested for in vitro inhibition of specific binding of [125I]AII for bolus injection of 0.3 mg/kg lasting up to 90 min post dose. It counts as functional. As to conditions: 1.5 h.

Turning to `Cc1ccc2c(O)c(-c3ccccc3)c(=O)n(Cc3ccc(-c4ccccc4-c4nnn[nH]4)cc3)c2n1`, the IC50 in test [1] amounted to 1250 nM.
As for `O=c1c(-c2ccccc2)c(O)c2ccccc2n1Cc1ccc(-c2ccccc2-c2nn[nH]n2)cc1`, in test [1], the IC50 came out at 1700 nM. The compound also had a pKB in test [2] of 7.2. Also, the ED50 in test [3] turned out to be 1.2 mg/kg.
`CCOc1ccc2c(O)c(Cc3ccccc3)c(=O)n(Cc3ccc(-c4ccccc4C(=O)O)cc3)c2c1` returned a pKB in test [2] of 7.8.
As to `CS(=O)(=O)c1ccc2c(O)c(-c3ccccc3)c(=O)n(Cc3ccc(-c4ccccc4-c4nn[nH]n4)cc3)c2c1`, in test [1], the IC50 is roughly 30000 nM. Moreover, the negative logarithm of the KB (pKB) in test [2] turned out to be 5.9.
`CCCc1cc2ncnc-2c(O)n1Cc1ccc(-c2ccccc2-c2nn[nH]n2)cc1` registered a pKB in test [2] of 9.1. Further, in test [3], the ED50 was 0.18 mg/kg.
With `COc1ccc2c(O)c(-c3ccccc3)c(=O)n(Cc3ccc(-c4ccccc4-c4nnn[nH]4)cc3)c2c1`, in test [1], the IC50 was determined as 2200 nM.
With `CCOc1ccc2c(O)c(-c3ccccc3)c(=O)n(Cc3ccc(-c4ccccc4-c4nnn[nH]4)cc3)c2c1`, in test [1], the IC50 was 500 nM.
Regarding `CCCc1cc2nc(O)nc-2c(O)n1Cc1ccc(-c2ccccc2-c2nn[nH]n2)cc1`, the pKB in test [2] is 6.4.
On the same count and under the same terms, the figure for `CCc1ccc2c(O)c(-c3ccccc3)c(=O)n(Cc3ccc(-c4ccccc4C(=O)O)cc3)c2c1` is 7.2; for `CCCCc1c(O)c2ccc(OC)cc2n(Cc2ccc(-c3ccccc3C(=O)O)cc2)c1=O` it is 6.6.
As for `O=c1c(-c2ccccc2)c(O)c2c(n1Cc1ccc(-c3ccccc3-c3nnn[nH]3)cc1)CCC2`, the IC50 in test [1] was 1250 nM.
Take `COc1ccc2c(O)c(-c3ccccc3)c(=O)n(Cc3ccc(-c4ccccc4-c4nn[nH]n4)cc3)c2c1`: the pKB in test [2] was 7.4. The ED50 in test [3] came to 2.5 mg/kg.
In test [4], `CCCc1cc2ncn(C)c2c(=O)n1Cc1ccc(-c2ccccc2-c2nn[nH]n2)cc1` displayed an inhibition in vivo at 0.3 mg/kg greater than 50%. The compound also came in with a pKB in test [2] of 10.2. For the same compound, the ED50 in test [3] was less than 0.3 mg/kg.
Compound `O=c1c(Cc2ccccc2)c(O)c2ccccc2n1Cc1ccc(-c2ccccc2-c2nn[nH]n2)cc1` showed a negative-log KB (pKB) in test [2] of 7.5.
Still for that read-out and setting: the result for `CCCc1cc2c(ncn2C)c(=O)n1Cc1ccc(-c2ccccc2-c2nn[nH]n2)cc1` reads 7.6.
As for `O=c1c(-c2ccccc2)c(O)c2sccc2n1Cc1ccc(-c2ccccc2-c2nn[nH]n2)cc1`, the IC50 in test [1] worked out at 6000 nM. This compound returned a pKB in test [2] of 7.4. The ED50 in test [3] came out at 3.2 mg/kg.
With `CCCCc1nc(Cl)c(CO)n1Cc1ccc(-c2ccccc2-c2nnn[nH]2)cc1` [LOSARTAN], in test [2], the pKB was 8.3. In addition, the ED50 in test [3] turned out to be 1.2 mg/kg.
As for `O=c1c(-c2ccccc2)c(O)c2c(n1Cc1ccc(-c3ccccc3-c3nn[nH]n3)cc1)CCC2`, the pKB in test [2] came to 7.2.
In turn, `CCOc1ccc2c(O)c(-c3ccccc3)c(=O)n(Cc3ccc(-c4ccccc4-c4nn[nH]n4)cc3)c2c1` returned a pKB in test [2] of 7.1. The ED50 in test [3] came out at 1.3 mg/kg.
In test [2], `O=c1c(-c2ccccc2)c(O)c2ccc([N+](=O)[O-])cc2n1Cc1ccc(-c2ccccc2-c2nn[nH]n2)cc1` gave a pKB of 7.5.
Turning to `COc1ccc2c(O)c(-c3ccccc3)c(=O)n(Cc3ccc(-c4ccccc4C(=O)O)cc3)c2c1`, in test [1], the IC50 turned out to be 9500 nM. In test [2], this compound had a pKB of 6.7.
In turn, `CCOc1ccc2c(O)cc(=O)n(Cc3ccc(-c4ccccc4-c4nn[nH]n4)cc3)c2c1` came in with a pKB in test [2] of 8.9.
As for `CSc1ccc2c(O)c(-c3ccccc3)c(=O)n(Cc3ccc(-c4ccccc4-c4nn[nH]n4)cc3)c2c1`, in test [1], the IC50 came to 600 nM. For the same compound, the pKB in test [2] was found to be 6.6.
`CCc1cc2c(O)c(-c3ccccc3)c(=O)n(Cc3ccc(-c4ccccc4-c4nn[nH]n4)cc3)c2s1`: the IC50 in test [1] amounted to 90 nM. In addition, in test [3], the ED50 stood at 5 mg/kg.
For `CCOc1ccc2c(O)c(-c3ccccc3)c(=O)n(Cc3ccc(-c4ccccc4C(=O)O)cc3)c2c1`, the IC50 in test [1] worked out at 1800 nM. This compound also returned a pKB in test [2] of 7.7.
Consider `COc1ccc2c(O)c(C(C)=O)c(=O)n(Cc3ccc(-c4ccccc4C(=O)O)cc3)c2c1`, for which the pKB in test [2] is 6.6.
`COc1ccc2c(O)cc(=O)n(Cc3ccc(-c4ccccc4-c4nn[nH]n4)cc3)c2c1` came in with a pKB in test [2] of 8.3. Also, the ED50 in test [3] is 1.08 mg/kg.
`COc1ccc2c(O)cc(=O)n(Cc3ccc(-c4ccccc4C(=O)O)cc3)c2c1`: in test [2], the pKB worked out at 6.3.
On the same count and under the same terms, the result for `CCCCc1nc(Cl)c(CO)n1Cc1ccc(-c2ccccc2C(=O)O)cc1` reads 7.1; that for `Cc1ccc2c(O)c(-c3ccccc3)c(=O)n(Cc3ccc(-c4ccccc4-c4nn[nH]n4)cc3)c2n1`, 7; that for `CCc1cc2c(O)cc(=O)n(Cc3ccc(-c4ccccc4-c4nn[nH]n4)cc3)c2s1`, 9.6.

What is called pKB is the negative decadic logarithm of the KB, by convention in mol/L. High values mean a small KB, low ones a large KB. What is called inhibition in vivo is the percentage by which the read-out fell short of the control. A low value points to little suppression.
